We go through five compounds from US5455356A, “Fungicidal 1-aryl-1-[α-(triazolyl)alkyl]-1-silacycloalkanes and their preparation methods” (priority 1993, dated 1995).

What all share (type): cell-based
One test deals with Rhizoctonia solani. Put plainly: In vitro mycelial/spore growth on potato-sucrose-agar, percent disease control (RS, first column). The settings on record: read-out: % controlled, RS. The method in brief:
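Compounds applied at 100 ppm and 50 ppm (10% acetone in water), mixed into potato-sucrose-agar with fungus spotted centrally. Incubated several days in growth room. Percent disease control derived from radii of spore growth.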

A further test deals with Pyricalaria oryzae. In words: In vitro mycelial/spore growth on potato-sucrose-agar, percent disease control (PO). The settings on record: read-out: % controlled, PO. The method in brief:
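Compounds at 100 ppm and 50 ppm (10% acetone in water) mixed into potato-sucrose-agar, with Pyricalaria oryzae spotted centrally. After several days' incubation in a growth room, percent disease control derived from spore growth radii.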

Another test concerns Botryosphaeri. In words: In vitro mycelial/spore growth on potato-sucrose-agar, percent disease control (BD). The settings on record: read-out: % controlled, BD. The method in brief: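 Compounds at 100 ppm and 50 ppm (10% acetone in water) mixed into potato-sucrose-agar, with Botryosphaeria spotted centrally and incubated for several days. Percent disease control calculated from growth radii.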

For another test, the system named is Phytophthora capsisi. In words: In vitro mycelial/spore growth on potato-sucrose-agar, percent disease control (PC). Conditions: read-out: % controlled, PC. The method in brief:
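Compounds at 100 ppm and 50 ppm (10% acetone in water) mixed into potato-sucrose-agar, with the fungus spotted at the centre and incubated for several days. Percent control derived from the radii of spore growth.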

For another test, the system named is Rhizopus sp. In words: In vitro mycelial/spore growth on potato-sucrose-agar, percent disease control (RS, second column). The settings on record: read-out: % controlled, RS; for inhibition of growth at 50 ppm: Rhizopus sp.; for inhibition of growth at 200 ppm: Rhizopus. The method in brief: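 Compound dissolved in acetone (10% of final volume) and water at 100 ppm and 50 ppm, mixed into potato-sucrose-agar. Rhizopus sp. spotted centrally and grown several days in a growth room; percent disease control derived from spore growth radii.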

Another test has as its system Botritis cinerea. In words: In vitro mycelial/spore growth on potato-sucrose-agar, percent disease control (BC). Conditions: read-out: % controlled, BC. The method in brief:
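Compounds dissolved in acetone (10% of final volume) then water to 100 and 50 ppm, mixed into potato-sucrose-agar, and B. cinerea spotted centrally. After several days in a growth room, percent disease control calculated from spore growth radii.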

For a further test, the system named is Fusarium moniliforme. Put plainly: In vitro mycelial/spore growth on potato-sucrose-agar, percent disease control (FM). The settings on record: Fusarium verticillioides, Fusarium moniliforme, read-out: % controlled, FM. Summed up: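 Compounds at 100 and 50 ppm, in water containing 10% acetone, were mixed into potato-sucrose agar, and the fungus was spotted centrally. Plates were incubated several days in a growth room. Percent control was derived from growth radii.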

The next test concerns GC. In words: In vitro mycelial/spore growth on potato-sucrose-agar, percent disease control (GC). The settings on record: read-out: % controlled, GC; for inhibition of growth at 50 ppm: GC. The method in brief:
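Compounds dissolved in acetone (10% of final volume) and water at 100 and 50 ppm, mixed into potato-sucrose-agar. Fungus spotted at plate centre and incubated several days in a growth room; percent disease control derived from the radii of growth.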

Consider `CC(n1cncn1)[Si]1(c2ccc(-c3ccccc3)cc2)CCCC1` (stereo not drawn) [1-(4-biphenyl)-1-[α-(1H-1,2,4-triazole-1-yl)ethyl]-1-silacyclopentane], for which the inhibition of growth at 50 ppm turned out to be 100% in the test on Rhizoctonia solani; 100% in the test on Pyricalaria oryzae; 100% in the test with Botryosphaeri; 80% in the test with Phytophthora capsisi; 86% in the test on Rhizopus sp.; 100% in the test on Botritis cinerea. For the same compound, the inhibition of growth at 50 ppm in the test with Fusarium moniliforme was 97%; in the test on GC, 100%. For the same compound, the inhibition of growth at 200 ppm in the test on Rhizoctonia solani is 100%; in the test on Pyricalaria oryzae, 100%; in the test with Botryosphaeri, 100%; in the test with Phytophthora capsisi it was 100%; with Rhizopus sp., 90%; in the test with Botritis cinerea it was 100%. Besides, the inhibition of growth at 200 ppm with Fusarium moniliforme and in the test with GC was 100% each time.

On to `Fc1ccc([Si]2(Cn3cncn3)CCCCC2)cc1` [1-(4-fluorophenyl)-1-(1H-1,2,4-triazole-1-yl)methyl-1-silacyclohexane], for which the inhibition of growth at 50 ppm amounted to 55% with Rhizoctonia solani; 96% in the test with Pyricalaria oryzae; 100% in the test with Botryosphaeri; 47% in the test with Phytophthora capsisi; 75% in the test on Rhizopus sp.; 100% in the test with Botritis cinerea. Moreover, the inhibition of growth at 50 ppm in the test with Fusarium moniliforme and in the test on GC was 100% throughout. In addition, the inhibition of growth at 200 ppm is 59% in the test with Rhizoctonia solani; 100% in the test on Pyricalaria oryzae; 100% in the test on Botryosphaeri; 74% with Phytophthora capsisi; 93% in the test on Rhizopus sp.; 100% in the test with Botritis cinerea. The inhibition of growth at 200 ppm in the test on Fusarium moniliforme and in the test on GC was 100% throughout.

`CC(n1cncn1)[Si]1(c2ccc(-c3ccccc3)cc2)CCCCC1` (stereo not drawn) [1-(4-biphenyl)-1-[α-(1H-1,2,4-triazole-1-yl)ethyl]-1-silacyclohexane]: the inhibition of growth at 50 ppm in the test with Rhizoctonia solani turned out to be 100%; in the test with Pyricalaria oryzae it was 100%; in the test on Botryosphaeri it was 100%; in the test on Phytophthora capsisi it was 92%; with Rhizopus sp., 79%; in the test on Botritis cinerea, 100%. In addition, the inhibition of growth at 50 ppm with Fusarium moniliforme and with GC was 100% each time. For the same compound, the inhibition of growth at 200 ppm with Rhizoctonia solani turned out to be 100%; in the test on Pyricalaria oryzae it was 100%; in the test with Botryosphaeri, 100%; with Phytophthora capsisi, 100%; in the test on Rhizopus sp., 89%; in the test on Botritis cinerea, 100%. For the same compound, the inhibition of growth at 200 ppm in the test on Fusarium moniliforme and in the test with GC was 100% throughout.

As to `COc1ccc([Si]2(C(C)n3cncn3)CCCCC2)cc1` (stereo not drawn) [1-(4-methoxoyphenyl)-1-[α-(1H-1,2,4-triazole-1-yl)ethyl]-1-silacyclohexane], the inhibition of growth at 50 ppm amounted to 93% in the test on Rhizoctonia solani; 100% in the test with Pyricalaria oryzae; 92% in the test on Botryosphaeri; 55% in the test on Phytophthora capsisi; 49% with Rhizopus sp.; 64% in the test with Botritis cinerea. The inhibition of growth at 50 ppm with Fusarium moniliforme came to 94%; with GC, 100%. In addition, the inhibition of growth at 200 ppm in the test on Rhizoctonia solani came to 100%; in the test with Pyricalaria oryzae, 100%; in the test on Botryosphaeri it was 100%; with Phytophthora capsisi it was 85%; with Rhizopus sp., 60%; in the test on Botritis cinerea, 100%. Further, the inhibition of growth at 200 ppm in the test with Fusarium moniliforme was found to be 98%; in the test with GC, 100%.

For the compound `FC(F)(F)c1ccc([Si]2(Cn3cncn3)CCCC2)cc1` [1-(4-trifluoromethyl)-1-(1H-1,2,4-triazole-1-yl)methyl-1-silacyclopentane], the inhibition of growth at 50 ppm with Rhizoctonia solani was 95%; in the test with Pyricalaria oryzae it was 100%; in the test on Botryosphaeri, 96%; in the test with Phytophthora capsisi it was 70%; in the test on Rhizopus sp., 69%; with Botritis cinerea it was 96%. Besides, the values for the inhibition of growth at 50 ppm with Fusarium moniliforme and in the test with GC were 79% and 100%, respectively. Moreover, the inhibition of growth at 200 ppm in the test on Rhizoctonia solani is 99%; with Pyricalaria oryzae, 100%; with Botryosphaeri it was 100%; with Phytophthora capsisi, 79%; in the test with Rhizopus sp. it was 72%; with Botritis cinerea, 100%. In addition, the inhibition of growth at 200 ppm in the test on Fusarium moniliforme and in the test with GC was 100% in each case.
